Laboratory results as given in patent publication US20260191845A1, “PYRIDINE-2-THIOL 1-OXIDE DERIVATIVES AND THEIR USE FOR TREATMENT OF MAMMALIAN INFECTIONS CAUSED BY MYCOBACTERIUM OR FUNGI” (priority 2022, published 2026).

Experiments:
[1] = system: IC1 M. tuberculosis MDR clinical isolate; assay: REMA MIC90, broad spectrum of microorganisms; format: cell-based; conditions: Mycobacterium tuberculosis, read-out: MIC to Compound 2
[2] = system: IC2 M. tuberculosis MDR clinical isolate; assay: REMA MIC90, broad spectrum of microorganisms; format: cell-based; conditions: Mycobacterium tuberculosis, read-out: MIC to Compound 2

Structure (SMILES): CCOC(=O)c1ccc([S-])[n+]([O-])c1.[Na+] [Compound 2, Sodium 5-(ethoxycarbonyl)pyridine-2-thiolate 1-oxide]
- MIC [1]: 25 µg/mL
- MIC [2]: 25 µg/mL
